# Data as given in patent US7737253B2, “Human cancer stem cell culture compositions comprising Erbb2 variants and methods of use thereof” (BresaGen, Inc., priority 2006, dated 2010).
# Entries after “also recorded” stand apart in the source; their conditions may differ.
# Legend:
# [1] = system: BG01v cells; test: Growth of BG01v cells in defined media with Erbb2 TK inhibitors; format: cell-based, human; conditions: absence of an exogenous Erbb2 activating growth factor
# Source text: This confirms that endogenous Erbb2 signaling is critical for the self-renewal of BG01v cells and represents a major difference between variant and normal hESCs.
# [2] = system: hESCs; test: hESC proliferation and cell count after treatment with AG825; format: cell-based, human; conditions: for cell count: average of triplicate counts
# Procedure: Based on the above studies described in Examples 13 and 14, further experiments were performed to quantify the number of hESCs and determine the level of inhibition of Erbb2 using AG825. […] Values reported were taken from an average of the triplicate (3) cell counts. The initial cell count was performed similarly. AG825 inhibited Erbb2 tyrosine kinase activity, thereby inhibiting cell signaling, and effectively reducing and inhibiting HESC proliferation and growth by about at least 1, 2 or 3 orders of magnitude.
# [3] = system: ERBB2 (phospho-Y1248); test: Western blot of ERBB2 phospho-Y1248 in BG01 hESCs; format: cell-based, human; conditions: BG01 hESCs starved overnight
# Procedure: BG01 hESCs were grown in DC-HAIF and then in media minus or starved of growth factors overnight, washed and then pulsed with either with heregulin (HRG) or not, or incubated with AG825 or not.
# All BG01 HESC cultures were first grown in defined conditioned-heregulin/Activin A/IGF1/FGF (DC-HAIF) and then in media starved of growth factors overnight e.g., no heregulin, Activin A, IGF1 and/or FGF. […]
# Cell lysates were prepared as per RTK blotting, separated by 4-20% gradient SDS-PAGE, blotted and detected with an immunoaffinity purified anti-ERBB2 (phospho-Y1248) antibody (Upstate/Millipore Cat#06229). The Erbb2 phospho-Y1248 antibody was used to quantify tyrosine phosphorylation of Erbb2 resulting from the interaction of heregulin with Erbb3 and/or ErbB4. […]
# [4] = target: Erbb2 tyrosine kinase (Homo sapiens, UniProt P04626); conditions: cited from earlier work
# [5] = system: Erbb2Δ16-expressing cells; conditions: unlike wild type Erbb2-transfectants; cited from earlier work
# [6] = target: T1, wild type Erbb2 (Homo sapiens, UniProt P04626); conditions: cited from earlier work
# T1 construct: host or cells: transfected human cells (Castiglioni et al., 2006)
# [7] = target: T2, Erbb2Δ16 (Homo sapiens, UniProt P04626, DEL634-649); conditions: cited from earlier work
# T2 construct: host or cells: transfected human cells / Erbb2Δ16 transgene over-expression (Castiglioni et al., 2006)
# [8] = target: Erbb2/3 heterodimers (Homo sapiens, UniProt P21860); conditions: read-out: binding affinity; cited from earlier work
# [9] = target: Erbb2/4 heterodimers (Homo sapiens, UniProt Q15303); conditions: read-out: binding affinity; cited from earlier work
# [10] = target: T3, Erbb3 (Homo sapiens, UniProt P21860); test: Phospho-RTK antibody array, Erbb3 phosphorylation in BG01 and BG01v cells; format: cell-based; conditions: BG01 and BG01v cells starved overnight, then pulsed about 15 minutes with 10 ng/ml heregulin
# T3 construct: endogenous in cells; host or cells: BG01 and BG01v human embryonic stem cells
# Procedure: (§1) (A) BG01 and BG01v cells were grown in defined condition-heregulin/Activin A/IGF-1/FGF (DC-HAIF) media. The hESCs were starved of growth factors overnight (“Starved”), or starved then pulsed with 10 ng/ml Heregulin (“HRG pulse”). Cell lysates were prepared and examined for phosphorylation of Erbb2 and Erbb3 by RTK blotting. (B) The spots were quantified, normalized against controls, and charted as normalized relative intensity. […] While at a lower overall intensity, a similar pattern was also observed in the starved conditions.
# (§2) Cells were maintained in steady state conditions in defined conditioned-heregulin/Activin A/IGF1/FGF (DC-HAIF), were incubated in media minus or starved of growth factors (e.g., no heregulin/Activin A/IGF1/FGF) overnight, or starved and then pulsed about 15 minutes with 10 ng/ml heregulin. Proteome Profiler™ human phospho-RTK antibody arrays (R&D Systems, Cat#ARY001) were used according to the manufacturer's instructions. […] The arrayed antibodies capture the extracellular domains of both phosphorylated and unphosphorylated RTKs, and bound phospho-RTKs were detected with a pan anti-phospho-tyrosine antibody conjugated to horseradish peroxidase (HRP) using chemiluminescence. X-ray film was scanned and spots were quantified using NTH-image (world wide web at rsb.info.nih.gov/nih-image/). […]
# [11] = system: Erbb2; test: Phospho-RTK antibody array, Erbb2 phosphorylation in BG01 and BG01v cells; format: cell-based, human; conditions: BG01 and BG01v cells starved overnight, then pulsed about 15 minutes with 10 ng/ml heregulin
# Procedure: as §1, §2
molecule,measurement,setting,value
"COc1cc(/C=C(\C#N)C(N)=O)cc(CSc2nc3ccccc3s2)c1O [AG825, Tyrphostin AG825]",growth of BG01v cells,[1],inhibit the growth
same,number of hESCs after treatment compared to DMSO and conditioned media (CM) control,[2],statistically significant decrease
same,cell count,"[2]; Experiment 1, initial cell count 560 × 10^3, CM 1.99 × 10^6, DMSO 2.13 × 10^6, P = 0.005",406.6 × 10^3
same,cell count,"[2]; Experiment 2, initial cell count 853.3 × 10^3, CM 2.77 × 10^6, DMSO 2.54 × 10^6, P = 0.007",433.3 × 10^3
same,proliferation of hESCs,[2]; hESCs growing in CM,significantly inhibited proliferation
same,autophosphorylation of ERBB2 at Tyrosine-1248,"[3]; 15 minute pulse, 50 μM AG825 without or with 10 ng/ml HRG1β (lanes 2 and 4)",inhibited autophosphorylation; also recorded: inhibition of ERBB2 Y1248 phosphorylation
same,selectivity as inhibitor of the Erbb2 tyrosine kinase,[4],highly selective inhibitor
CC(C)(C)c1cc(/C=C(\C#N)C(N)=S)cc(C(C)(C)C)c1O [AG879],growth of BG01v cells,[1],inhibit the growth
COc1cc2ncnc(Nc3ccc(F)c(Cl)c3)c2cc1OCCCN1CCOCC1 [ZD1839],sensitivity of Erbb2Δ16-expressing cells to the drug,[5],low sensitivity
Cc1cc(O)c2c(c1)C(=O)c1cc(O)cc(O)c1C2=O [emodin],growth of BG01v cells,[1],inhibit the growth
same,activation of wild type Erbb2 transfectants,[6],blocked activation
same,activation of Erbb2Δ16 transfectants,[7],blocked activation
"HRG-β: neuregulin-β, EGF growth factor family member; cleaved ectodomain of neuregulin",Kd,[8],< 1 nM
same,Kd,[9],< 1 nM
"HRG: Heregulin-β EGF domain (HRGβ, Peprotech), recombinant growth factor",phosphorylation of ERBB3,[10],strong phosphorylation
same,Erbb2 phosphorylation detected by phospho-Y1248 antibody,[3]; 15 minute pulse with 10 ng/ml HRG1β (lane 3) or DC-HAIF media (lane 5),increased Erbb2 phosphorylation
same,phosphorylation of ERBB2,[11],strong phosphorylation
